In patent US20230219986A1, “NOVEL AMINOPYRIMIDINE EGFR INHIBITOR” (QILU PHARMACEUTICAL CO., LTD., priority 2020, published 2023):
Read-outs that look alike come from different tables or passages of the source.

Legend:
[1] = target: Ba/F3 L858R/T790M/C797S EGFR triple mutant cell line (Homo sapiens, UniProt P00533, T790M/C797S/L858R, cells depend on it); assay: Cell proliferation inhibition experiment (CellTiter-Glo), Ba/F3 L858R/T790M/C797S; type: cell-based; conditions: 72 hours, Cell Titer-Glo, read-out: Ba/F3 (L858R/T790M/C797S) IC50
Procedure: (§1) 3) 30 nL of gradient diluted compound was transferred into the 384-well experimental plate using Echo 550 (Labcyte) at a DMSO final concentration of 0.1%, and the culture plate was incubated in a cell incubator for 72 hours (37° C., 5% CO2).
(§2) 4) 30 μL of Cell Titer-Glo reagent was added to each well and left for 30 minutes at room temperature and protected from light.
(§3) 5) Envision microplate reader (PerkinElmer) detected chemiluminescence signals.
(§4) 6) GraphPad Prism 8 software was used for data analysis to obtain the IC50 of the compounds of the present disclosure and the positive control.

[2] = system: EGFR wild-type cell line A431; assay: Cell proliferation inhibition experiment (CellTiter-Glo), A431; type: cell-based; conditions: A431 cells, Cell Titer-Glo, read-out: A431 EGFR WT IC50
Procedure: A431 cells, purchased from ATCC.
1) A431 cells were inoculated in a 384-well culture plate at a density of 800 cells per well, 30 μL per well, placed in a cell incubator, and cultured for 24 hours (37° C., 5% CO2).
as §1, §2, §3, §4

[3] = target: Ba/F3 De119/T790M/C797S EGFR triple mutant cell line (Homo sapiens, UniProt P00533, T790M/C797S, cells depend on it, form not given); assay: Cell proliferation inhibition experiment (CellTiter-Glo), Ba/F3 De119/T790M/C797S; type: cell-based; conditions: Ba/F3 Del19/T790M/C797S EGFR triple mutant cells, 72 hours, Cell Titer-Glo; read-out: Ba/F3 (Del19/T790M/C797S) IC50
Procedure: as §1, §2, §3, §4

[4] = target: T1, L858R/T790M/C797S triple mutant EGFR (Homo sapiens, UniProt P00533, C797S/L858R/T790M); assay: Enzymology experiment in vitro (HTRF/FRET kinase activity), L858R/T790M/C797S triple mutant EGFR; type: biochemical; conditions: HTRF KinEASE-TK, read-out: EGFR (L858R/T790M/C797S) IC50
T1 construct: purchased Signalchem
Procedure: 1. Experimental Materials
HTRF KinEASE-TK kit detection reagent, purchased from Cisbio
1) 10 nL of gradient diluted compound was transferred into a 384-well experimental plate using Echo 550 (Labcyte).
2) 5 μL of 2×EGFR enzyme solution was added to the 384-well experimental plate and incubated at room temperature for 10 minutes.
3) 5 μL of 2× substrate solution containing polypeptide and ATP was added to the 384-well experimental plate and incubated at room temperature for 40 minutes.
4) 10 μL of detection solution containing EDTA, XL665-labeled streptavidin and Eu^3+-labeled antibody was added thereto and incubated at room temperature for 1 hour.

Chain of Ba/F3 L858R/T790M/C797S EGFR triple mutant cell line (P00533 whole entry T790M/C797S/L858R): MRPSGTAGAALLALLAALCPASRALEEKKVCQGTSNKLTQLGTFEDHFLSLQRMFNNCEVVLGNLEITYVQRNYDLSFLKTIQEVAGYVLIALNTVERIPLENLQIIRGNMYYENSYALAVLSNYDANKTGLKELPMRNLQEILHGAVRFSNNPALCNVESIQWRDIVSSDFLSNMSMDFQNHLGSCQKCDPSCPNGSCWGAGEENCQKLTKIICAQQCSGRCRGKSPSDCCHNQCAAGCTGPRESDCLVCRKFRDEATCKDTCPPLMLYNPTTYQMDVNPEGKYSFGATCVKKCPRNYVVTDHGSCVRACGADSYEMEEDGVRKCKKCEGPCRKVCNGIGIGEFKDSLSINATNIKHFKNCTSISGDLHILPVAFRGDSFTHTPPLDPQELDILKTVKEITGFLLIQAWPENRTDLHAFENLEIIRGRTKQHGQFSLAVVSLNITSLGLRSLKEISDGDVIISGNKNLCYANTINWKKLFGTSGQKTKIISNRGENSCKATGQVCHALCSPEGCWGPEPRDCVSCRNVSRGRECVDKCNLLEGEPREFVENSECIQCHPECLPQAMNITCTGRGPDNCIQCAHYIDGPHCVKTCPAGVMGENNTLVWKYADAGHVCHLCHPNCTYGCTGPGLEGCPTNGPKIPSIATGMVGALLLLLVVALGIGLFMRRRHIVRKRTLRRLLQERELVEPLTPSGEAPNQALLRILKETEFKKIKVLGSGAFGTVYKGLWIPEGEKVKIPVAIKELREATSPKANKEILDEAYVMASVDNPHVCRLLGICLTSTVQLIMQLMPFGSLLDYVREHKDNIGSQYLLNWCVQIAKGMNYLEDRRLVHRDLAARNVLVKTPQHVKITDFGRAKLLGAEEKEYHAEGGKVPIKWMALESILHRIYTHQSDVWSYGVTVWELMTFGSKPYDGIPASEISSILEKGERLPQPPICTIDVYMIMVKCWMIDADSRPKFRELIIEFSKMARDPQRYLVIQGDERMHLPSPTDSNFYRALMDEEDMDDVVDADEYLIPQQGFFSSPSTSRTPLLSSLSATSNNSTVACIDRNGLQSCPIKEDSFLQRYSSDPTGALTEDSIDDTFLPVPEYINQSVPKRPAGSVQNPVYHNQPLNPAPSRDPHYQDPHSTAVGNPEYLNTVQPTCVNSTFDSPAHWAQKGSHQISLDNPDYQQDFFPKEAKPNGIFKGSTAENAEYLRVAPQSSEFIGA
Chain of Ba/F3 De119/T790M/C797S EGFR triple mutant cell line (P00533 with tags, fused parts or gaps DEL746-750/T790M/C797S, form open): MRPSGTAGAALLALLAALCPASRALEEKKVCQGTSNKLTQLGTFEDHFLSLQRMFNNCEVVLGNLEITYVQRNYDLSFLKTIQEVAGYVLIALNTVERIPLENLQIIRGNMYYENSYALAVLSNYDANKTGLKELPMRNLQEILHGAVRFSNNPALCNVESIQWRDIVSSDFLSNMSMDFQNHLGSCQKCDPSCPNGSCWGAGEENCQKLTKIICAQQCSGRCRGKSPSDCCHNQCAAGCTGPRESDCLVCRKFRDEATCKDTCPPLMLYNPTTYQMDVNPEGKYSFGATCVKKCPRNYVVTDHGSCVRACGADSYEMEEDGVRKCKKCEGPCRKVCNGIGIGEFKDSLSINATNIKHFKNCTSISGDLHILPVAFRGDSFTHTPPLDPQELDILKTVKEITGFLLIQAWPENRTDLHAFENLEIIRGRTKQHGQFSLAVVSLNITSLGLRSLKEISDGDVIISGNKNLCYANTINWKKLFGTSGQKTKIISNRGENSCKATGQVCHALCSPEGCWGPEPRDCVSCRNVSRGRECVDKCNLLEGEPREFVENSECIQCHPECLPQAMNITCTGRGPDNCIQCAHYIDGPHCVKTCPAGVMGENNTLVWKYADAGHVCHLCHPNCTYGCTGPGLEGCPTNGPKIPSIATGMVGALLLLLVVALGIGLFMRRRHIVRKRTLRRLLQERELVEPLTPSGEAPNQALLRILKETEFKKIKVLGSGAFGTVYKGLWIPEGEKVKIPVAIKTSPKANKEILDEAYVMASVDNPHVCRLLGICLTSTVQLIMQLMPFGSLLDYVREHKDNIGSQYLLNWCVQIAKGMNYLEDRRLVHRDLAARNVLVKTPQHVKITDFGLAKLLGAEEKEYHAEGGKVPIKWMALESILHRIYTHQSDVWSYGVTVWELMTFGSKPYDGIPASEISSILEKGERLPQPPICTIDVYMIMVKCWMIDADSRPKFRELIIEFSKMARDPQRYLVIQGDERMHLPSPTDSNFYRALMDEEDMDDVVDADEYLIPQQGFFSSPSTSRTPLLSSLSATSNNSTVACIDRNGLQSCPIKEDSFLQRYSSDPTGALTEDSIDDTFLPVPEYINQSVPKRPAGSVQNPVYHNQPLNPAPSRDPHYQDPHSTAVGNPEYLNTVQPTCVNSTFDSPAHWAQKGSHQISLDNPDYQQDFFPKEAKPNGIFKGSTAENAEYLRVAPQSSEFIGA
T1 sequence (P00533 25-1210 T790M/C797S/L858R): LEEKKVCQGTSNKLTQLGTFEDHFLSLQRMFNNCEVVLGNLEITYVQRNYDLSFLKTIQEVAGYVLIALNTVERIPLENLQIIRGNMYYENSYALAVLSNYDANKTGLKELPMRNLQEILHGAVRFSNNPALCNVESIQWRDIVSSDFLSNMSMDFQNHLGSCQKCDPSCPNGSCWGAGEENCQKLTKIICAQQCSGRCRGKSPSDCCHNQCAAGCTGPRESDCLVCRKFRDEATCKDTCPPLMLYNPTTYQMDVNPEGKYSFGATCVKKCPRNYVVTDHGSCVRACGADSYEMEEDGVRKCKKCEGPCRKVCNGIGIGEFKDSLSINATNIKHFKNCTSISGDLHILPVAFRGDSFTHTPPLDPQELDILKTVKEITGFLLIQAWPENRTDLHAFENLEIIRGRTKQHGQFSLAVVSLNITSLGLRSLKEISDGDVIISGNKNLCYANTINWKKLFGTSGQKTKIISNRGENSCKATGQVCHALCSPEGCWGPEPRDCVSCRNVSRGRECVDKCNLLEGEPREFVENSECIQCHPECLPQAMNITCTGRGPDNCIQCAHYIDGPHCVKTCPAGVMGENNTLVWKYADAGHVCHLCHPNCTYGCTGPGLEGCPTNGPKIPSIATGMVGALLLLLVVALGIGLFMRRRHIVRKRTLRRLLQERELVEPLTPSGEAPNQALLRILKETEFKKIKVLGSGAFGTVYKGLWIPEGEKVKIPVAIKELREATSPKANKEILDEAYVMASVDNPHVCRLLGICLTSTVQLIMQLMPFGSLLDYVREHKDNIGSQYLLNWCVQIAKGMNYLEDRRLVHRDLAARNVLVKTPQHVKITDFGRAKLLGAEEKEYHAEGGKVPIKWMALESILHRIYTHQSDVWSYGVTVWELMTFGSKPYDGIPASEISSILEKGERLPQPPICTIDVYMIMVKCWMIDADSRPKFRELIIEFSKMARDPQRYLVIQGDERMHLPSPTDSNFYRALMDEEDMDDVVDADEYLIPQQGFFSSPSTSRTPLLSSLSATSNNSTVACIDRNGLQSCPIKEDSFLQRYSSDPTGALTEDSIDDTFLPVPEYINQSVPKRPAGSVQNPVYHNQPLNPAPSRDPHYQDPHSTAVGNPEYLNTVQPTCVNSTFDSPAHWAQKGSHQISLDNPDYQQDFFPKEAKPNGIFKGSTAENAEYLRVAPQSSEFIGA

SMILES: COc1cc(N2CCC(N3CCN(C)CC3)CC2)ccc1Nc1ncc(Cl)c(Nc2ccccc2P(C)(C)=O)n1 [Brigatinib, reference compound]
- GI50 [1]: 320 nM
- IC50 ([2]; Homo sapiens, A-431, 72 hours): 771 nM
- GI50 [3]: 103 nM

SMILES: COc1c(Nc2ncc(Br)c(Nc3ccc4nccnc4c3P(C)(C)=O)n2)cc(-c2cnn(C)c2)c(N2CCOCC2)c1C [Compound 68, (6-((5-bromo-2-((2-methoxy-3-methyl-5-(1-methyl-1H-pyrazol-4-yl)-4-morpholinylphenyl)amino)pyrimidin-4-yl)amino)quinoxalin-5-yl)dimethylphosphine oxide]
- GI50 [1]: 372 nM
- IC50 ([2]; Homo sapiens, A-431, 72 h): 1390 nM
- GI50 [3]: 114 nM

SMILES: CN1CCN(c2ncc(Nc3ncc(Br)c(Nc4ccc5nccnc5c4P(C)(C)=O)n3)cc2-c2cnn(C)c2)CC1 [Compound 70, (6-((5-bromo-2-((5-(1-methyl-1H-pyrazol-4-yl)-6-(4-methylpiperazin-1-yl)pyridin-3-yl)amino)pyrimidin-4-yl)amino)quinoxalin-5-yl)dimethylphosphine oxide]
- GI50 [1]: 348 nM
- IC50 ([2]; Homo sapiens, A-431, 72 h): 157 nM
- GI50 [3]: 117 nM

SMILES: COc1nc(N(C)CCN(C)C)c(-c2cnn(C)c2)cc1Nc1ncc(Br)c(Nc2ccc3nccnc3c2P(C)(C)=O)n1 [compound 45]
- IC50 ([2]; Homo sapiens, A-431, 72 h): 102 nM
- GI50 [3]: 7.65 nM

SMILES: Cn1cc(-c2cc(Nc3ncc(Br)c(Nc4ccc5nccnc5c4P(C)(C)=O)n3)cc(F)c2N2CCOCC2)cn1 [compound 46]
- GI50 [1]: 11.7 nM
- IC50 ([2]; Homo sapiens, A-431, 72 h): 67.2 nM
- GI50 [3]: 6.71 nM

SMILES: Cn1cc(-c2cc(Nc3ncc(Br)c(Nc4ccc5nccnc5c4P(C)(C)=O)n3)ccc2N2CCOCC2)cn1 [compound 48]
- GI50 [1]: 6.03 nM
- IC50 ([2]; Homo sapiens, A-431, 72 h): 51.1 nM
- GI50 [3]: 3.02 nM

SMILES: COc1ccc(-n2ccnc2)cc1Nc1ncc(Br)c(Nc2ccc3nccnc3c2P(C)(C)=O)n1 [compound 50]
- IC50 ([2]; Homo sapiens, A-431, 72 h): 508 nM
- GI50 [3]: 34.1 nM

SMILES: CNC(=O)c1ccccc1Nc1nc(Nc2cc(-c3cnn(C)c3)c(N3CCOCC3)cc2OC)ncc1Br [compound 52]
- IC50 ([2]; Homo sapiens, A-431, 72 h): 158 nM
- GI50 [3]: 26.7 nM

SMILES: COc1cc(N2CCOCC2)c(-c2cnn(C)c2)cc1Nc1ncc(Br)c(Nc2ccccc2S(=O)(=O)C(C)C)n1 [compound 54]
- IC50 ([2]; Homo sapiens, A-431, 72 h): 638 nM
- GI50 [3]: 103 nM

SMILES: COc1cc(P(C)(C)=O)c(-c2cnn(C)c2)cc1Nc1ncc(Br)c(Nc2ccc3nccnc3c2P(C)(C)=O)n1 [compound 55]
- IC50 ([2]; Homo sapiens, A-431, 72 h): ≥ 5000 nM
- GI50 [3]: 1230 nM

SMILES: COc1cc(N2CCOCC2)c(C#N)cc1Nc1ncc(Br)c(Nc2ccc3nccnc3c2P(C)(C)=O)n1 [compound 59]
- IC50 ([2]; Homo sapiens, A-431, 72 h): 345 nM
- GI50 [3]: 26.2 nM

SMILES: COc1cc(N2CCOCC2)c(-c2cncnc2)cc1Nc1ncc(C)c(Nc2ccc3nccnc3c2P(C)(C)=O)n1 [compound 60]
- IC50 ([2]; Homo sapiens, A-431, 72 h): 658 nM
- GI50 [3]: 89.3 nM

SMILES: COc1cc(N2CCOCC2)c(-n2cccn2)cc1Nc1ncc(Br)c(Nc2ccc3nccnc3c2P(C)(C)=O)n1 [compound 61]
- GI50 [1]: 794 nM
- IC50 ([2]; Homo sapiens, A-431, 72 h): 6580 nM
- GI50 [3]: 312 nM

SMILES: COc1cc(N2CCOCC2)c(-c2cnn(C)c2)c(F)c1Nc1ncc(Br)c(Nc2ccc3nccnc3c2P(C)(C)=O)n1 [compound 62]
- GI50 [1]: 195 nM
- IC50 ([2]; Homo sapiens, A-431, 72 h): 3380 nM
- GI50 [3]: 73.6 nM

SMILES: COc1nc(N2CCOCC2)c(-c2cnn(C)c2)cc1Nc1ncc(C)c(Nc2ccc3nccnc3c2P(C)(C)=O)n1 [compound 63]
- GI50 [1]: 24.9 nM
- IC50 ([2]; Homo sapiens, A-431, 72 h): 331 nM
- GI50 [3]: 14.3 nM

SMILES: COc1nc(N2CCN(C)CC2)c(-c2cnn(C)c2)cc1Nc1ncc(Br)c(Nc2ccc3nccnc3c2P(C)(C)=O)n1 [compound 65]
- GI50 [1]: 17.3 nM
- IC50 ([2]; Homo sapiens, A-431, 72 h): 72.4 nM
- GI50 [3]: 6.68 nM

SMILES: COc1cc(N2CCCCC2)c(-c2cnn(C)c2)cc1Nc1ncc(Br)c(Nc2ccc3nccnc3c2P(C)(C)=O)n1 [compound 66]
- GI50 [1]: 10.8 nM
- IC50 ([2]; Homo sapiens, A-431, 72 h): 575 nM
- GI50 [3]: 3.04 nM

SMILES: COc1nc(N2CCC3(CC2)COC3)c(-c2cnn(C)c2)cc1Nc1ncc(Br)c(Nc2ccc3nccnc3c2P(C)(C)=O)n1 [compound 67]
- GI50 [1]: 59.2 nM
- IC50 ([2]; Homo sapiens, A-431, 72 hours): 622 nM
- GI50 [3]: 42.3 nM

SMILES: COc1cc(N2CCOCC2)c(-n2cc(C)cn2)cc1Nc1ncc(Br)c(Nc2ccc3nccnc3c2P(C)(C)=O)n1 [compound 73]
- GI50 [1]: 536 nM
- IC50 ([2]; Homo sapiens, A-431, 72 h): 3260 nM
- GI50 [3]: 326 nM

SMILES: CN1CCC2(CC1)CCN(c1ccc(Nc3ncc(Br)c(Nc4ccc5nccnc5c4P(C)(C)=O)n3)cc1-c1cnn(C)c1)CC2 [compound 76]
- GI50 [1]: 9.96 nM
- IC50 ([2]; Homo sapiens, A-431, 72 h): 20.7 nM
- GI50 [3]: 5.4 nM

SMILES: COc1cc(N2CCOCC2)c(-c2ccnn2C)cc1Nc1ncc(Br)c(Nc2ccc3nccnc3c2P(C)(C)=O)n1 [compound 90]
- GI50 [1]: 446 nM
- IC50 ([2]; Homo sapiens, A-431, 72 h): 4390 nM
- GI50 [3]: 251 nM

SMILES: COc1cc(N2CCOCC2)c(-c2cncn2C)cc1Nc1ncc(Br)c(Nc2ccc3nccnc3c2P(C)(C)=O)n1 [compound 91]
- GI50 [1]: 430 nM
- IC50 ([2]; Homo sapiens, A-431, 72 h): 3550 nM
- GI50 [3]: 278 nM

SMILES: COc1c(Nc2ncc(Br)c(Nc3ccc4nccnc4c3P(C)(C)=O)n2)cc(-c2cnn(C)c2)c(N2CCC(N(C)C)CC2)c1F [compound 95]
- GI50 [1]: 40.9 nM
- IC50 ([2]; Homo sapiens, A-431, 72 h): 96.7 nM
- GI50 [3]: 15.7 nM

SMILES: COc1cc(N2CCC(N(C)C)CC2)c(-c2cnn(C)c2)cc1Nc1ncc(Br)c(Nc2ccc3nccnc3c2P(C)(C)=O)n1 [compound 96]
- GI50 [1]: 9.39 nM
- IC50 ([2]; Homo sapiens, A-431, 72 h): 44.2 nM
- GI50 [3]: 3.52 nM

SMILES: COc1cc(N2CCN(CCO)CC2)c(-c2cnn(C)c2)cc1Nc1ncc(Br)c(Nc2ccc3nccnc3c2P(C)(C)=O)n1 [compound 99]
- GI50 [1]: 104 nM
- IC50 ([2]; Homo sapiens, A-431, 72 h): 209 nM
- GI50 [3]: 40.6 nM

SMILES: Cc1cc(Nc2ncc(Br)c(Nc3ccc4nccnc4c3P(C)(C)=O)n2)cc(-c2cnn(C)c2)c1N1CCOCC1 [compound 100, (6-((5-bromo-2-((3-methyl-5-(1-methyl-1H-pyrazol-4-yl)-4-morpholinylphenyl)amino)pyrimidin-4-yl)amino)quinoxalin-5-yl)dimethylphosphine oxide]
- GI50 [1]: 6.2 nM
- IC50 ([2]; Homo sapiens, A-431, 72 h): 29.1 nM
- GI50 [3]: 2.87 nM

SMILES: COc1cc(N2CCN(C)C(C)(C)C2)c(-c2cnn(C)c2)cc1Nc1ncc(Br)c(Nc2ccc3nccnc3c2P(C)(C)=O)n1 [compound 108]
- GI50 [1]: 24.5 nM
- IC50 ([2]; Homo sapiens, A-431, 72 h): 92.8 nM
- GI50 [3]: 12.5 nM

SMILES: COc1cc(N2CC3(COC3)C2)c(-c2cnn(C)c2)cc1Nc1ncc(Br)c(Nc2ccc3nccnc3c2P(C)(C)=O)n1 [compound 109]
- GI50 [1]: 62.8 nM
- IC50 ([2]; Homo sapiens, A-431, 72 h): 547 nM
- GI50 [3]: 46.3 nM

SMILES: COc1cc(N2CCC(C)(N)CC2)c(-c2cnn(C)c2)cc1Nc1ncc(Br)c(Nc2ccc3nccnc3c2P(C)(C)=O)n1 [compound 113]
- GI50 [1]: 176 nM
- IC50 ([2]; Homo sapiens, A-431, 72 h): 189 nM
- GI50 [3]: 74.5 nM

SMILES: COc1cc(N2CCNCC2)c(-c2cnn(C)c2)cc1Nc1ncc(Br)c(Nc2ccc3nccnc3c2P(C)(C)=O)n1 [compound 117]
- GI50 [1]: 120 nM
- IC50 ([2]; Homo sapiens, A-431, 72 h): 157 nM
- GI50 [3]: 41 nM

SMILES: COc1cc(N2CCC(N3CCOCC3)CC2)c(-c2cnn(C)c2)cc1Nc1ncc(Br)c(Nc2ccc3nccnc3c2P(C)(C)=O)n1 [compound 129]
- GI50 [1]: 2.71 nM
- IC50 ([2]; 72 hours): 86.2 nM
- GI50 [3]: 0.72 nM
- IC50 [4]: 0.27 nM

SMILES: COc1cc(C2=CCN(C)CC2)c(-c2cnn(C)c2)cc1Nc1ncc(Br)c(Nc2ccc3nccnc3c2P(C)(C)=O)n1 [compound 177]
- GI50 [1]: 35 nM
- IC50 ([2]; Homo sapiens, A-431, 72 h): 59.3 nM
- GI50 [3]: 25.6 nM
